The record followed here is ChEMBL document CHEMBL1944583, “Synthesis and evaluation of hexahydropyrrolo[3,4-d]isoxazole-4,6-diones as anti-stress agents” (Eur J Med Chem, 2012).

The source made the active and inactive calls. No cut-off for these calls is given here.

Series [1] relates to Mus musculus. As to the kind of experiment: Antistress activity in Swiss albino mouse assessed as reversal of immobilization stress-induced decrease in number of line crossing at 10 mg/kg, ip administered 60 mins before stress induction measured after 10 mins by open field test. In kind it is functional, organism-based. Further details: dose 10 mg/kg.
Series [2] has as its system Mus musculus. As to the kind of experiment: Toxicity in Swiss albino mouse assessed as increase in frequency of rearing at 10 mg/kg, ip. In kind it is organism-based. Further details: dose 10 mg/kg, route intraperitoneal. Conditions: in vivo.
Series [3] relates to Mus musculus. Put plainly: Antistress activity in Swiss albino mouse assessed as reversal of immobilization stress-induced decrease in frequency of head dip at 5 mg/kg, ip administered 60 mins before stress induction measured after 10 mins by hole board test. In kind it is functional, organism-based. Further details: dose 5 mg/kg.
The test system of series [4] is Mus musculus. Put plainly: Antistress activity in Swiss albino mouse assessed as reversal of immobilization stress-induced decrease in frequency of head dip at 10 mg/kg, ip administered 60 mins before stress induction measured after 10 mins by hole board test. The class given is functional, organism-based. Further details: dose 10 mg/kg.
Series [5] deals with Mus musculus. As to the kind of experiment: Antistress activity in Swiss albino mouse assessed as reversal of immobilization stress-induced decrease in frequency of head dip at 2 mg/kg, ip administered 60 mins before stress induction measured after 10 mins by hole board test. The class given is functional, organism-based. Further details: dose 2 mg/kg.
Series [6] deals with Mus musculus. Put plainly: Antistress activity in Swiss albino mouse assessed as reversal of immobilization stress-induced decrease in frequency of rearing at 10 mg/kg, ip administered 60 mins before stress induction measured after 10 mins by open field test. The class given is functional, organism-based. Further details: dose 10 mg/kg.
Series [7] has as its system Mus musculus. As to the kind of experiment: Antistress activity in Swiss albino mouse assessed as reversal of immobilization stress-induced decrease in rearing at 10 mg/kg, ip administered 60 mins before stress induction measured after 10 mins by hole board test. The class given is functional, organism-based. Also noted: dose 10 mg/kg.
In series [8] the test system is Mus musculus. Put plainly: Antistress activity in Swiss albino mouse assessed as reversal of immobilization stress-induced decrease in number of line crossing at 5 mg/kg, ip administered 60 mins before stress induction measured after 10 mins by open field test. Also noted: dose 5 mg/kg. The class given is functional, organism-based.
For series [9], the system named is Mus musculus. Put plainly: Antistress activity in Swiss albino mouse assessed as reversal of immobilization stress-induced decrease in frequency of rearing at 5 mg/kg, ip administered 60 mins before stress induction measured after 10 mins by open field test. The class given is functional, organism-based. Further details: dose 5 mg/kg.
Series [10] has as its system Mus musculus. As to the kind of experiment: Antistress activity in Swiss albino mouse assessed as reversal of immobilization stress-induced decrease in non-social behavior at 5 mg/kg, ip administered 60 mins before stress induction measured after 10 mins by open field test. The class given is functional, organism-based. Further details: dose 5 mg/kg.
For series [11], the system named is Mus musculus. Put plainly: Antistress activity in Swiss albino mouse assessed as reversal of immobilization stress-induced decrease in non-social behavior at 10 mg/kg, ip administered 60 mins before stress induction measured after 10 mins by open field test. In kind it is functional, organism-based. Also noted: dose 10 mg/kg.
A short description of series [12]: Half life in Swiss albino mouse. In kind it is ADME, organism-based. Conditions: in vivo.
Series [13] deals with Mus musculus. Put plainly: Antistress activity in Swiss albino mouse assessed as reversal of immobilization stress-induced decrease in rearing at 5 mg/kg, ip administered 60 mins before stress induction measured after 10 mins by hole board test. In kind it is functional, organism-based. Also noted: dose 5 mg/kg.
Series [14] has as its system Mus musculus. As to the kind of experiment: Toxicity in Swiss albino mouse assessed as increase in frequency of head dips at 10 mg/kg, ip. The class given is organism-based. Further details: dose 10 mg/kg, route intraperitoneal. The note with it: in vivo.
The test system of series [15] is Mus musculus. As to the kind of experiment: Antistress activity in Swiss albino mouse assessed as reversal of immobilization stress-induced decrease in locomotor activity at 5 mg/kg, ip administered 60 mins before stress induction measured every 5 mins by actophotometer test. In kind it is functional, organism-based. Further details: dose 5 mg/kg.
The test system of series [16] is Mus musculus. As to the kind of experiment: Antistress activity in Swiss albino mouse assessed as reversal of immobilization stress-induced decrease in rearing at 2 mg/kg, ip administered 60 mins before stress induction measured after 10 mins by hole board test. In kind it is functional, organism-based. Further details: dose 2 mg/kg.
Series [17] concerns Mus musculus. As to the kind of experiment: Antistress activity in Swiss albino mouse assessed as reversal of immobilization stress-induced decrease in locomotor activity at 10 mg/kg, ip administered 60 mins before stress induction measured every 5 mins by actophotometer test. In kind it is functional, organism-based. Further details: dose 10 mg/kg.
The test system of series [18] is Mus musculus. As to the kind of experiment: Antistress activity in Swiss albino mouse assessed as reversal of immobilization stress-induced decrease in locomotor activity at 2 mg/kg, ip administered 60 mins before stress induction measured every 5 mins by actophotometer test. In kind it is functional, organism-based. Also noted: dose 2 mg/kg.
The subject of series [19] is Mus musculus. Put plainly: Antistress activity in Swiss albino mouse assessed as reversal of immobilization stress-induced decrease in frequency of rearing at 2 mg/kg, ip administered 60 mins before stress induction measured after 10 mins by open field test. In kind it is functional, organism-based. Further details: dose 2 mg/kg.
Series [20] relates to Mus musculus. As to the kind of experiment: Antistress activity in Swiss albino mouse assessed as reversal of immobilization stress-induced decrease in number of line crossing at 2 mg/kg, ip administered 60 mins before stress induction measured after 10 mins by open field test. In kind it is functional, organism-based. Further details: dose 2 mg/kg.
Series [21] relates to Mus musculus. As to the kind of experiment: Antistress activity in Swiss albino mouse assessed as […] immobilization stress-induced decrease in non-social behavior at 2 mg/kg, ip administered 60 mins before stress induction measured after 10 mins by open field test. The class given is functional, organism-based. Also noted: dose 2 mg/kg.

In the case of `O=C1[C@H]2[C@@H](c3ccccc3)N(c3ccccc3)O[C@H]2C(=O)N1c1cccc2ccccc12` (relative stereo), the outcome in the series on Mus musculus [1], with Mus musculus [3], in the series with Mus musculus [4], in the series on Mus musculus [6], with Mus musculus [7] and with Mus musculus [8] was Active. For the same compound, the outcome in the series on Mus musculus [9], in the series with Mus musculus [10], in the series on Mus musculus [11], in the series on Mus musculus [13], in the series with Mus musculus [15] and in the series with Mus musculus [17] was Active. Further, the Activity result in the series on Mus musculus [2] and in the series with Mus musculus [14] was “Non-toxic” throughout. The outcome with Mus musculus [5] and in the series with Mus musculus [16] was inactive. Also, the half-life in [12] was 3 h.
For the compound `O=C1[C@@H]2[C@@H](ON(c3ccccc3)[C@H]2c2ccccc2)C(=O)N1c1cccc2ccccc12` (relative stereo), the outcome in the series on Mus musculus [18], in the series on Mus musculus [19], in the series with Mus musculus [8], in the series on Mus musculus [9], in the series on Mus musculus [10] and in the series with Mus musculus [20] was inactive. Besides, the outcome in the series on Mus musculus [21] and in the series with Mus musculus [15] was inactive. The result in the series with Mus musculus [1], in the series with Mus musculus [6], with Mus musculus [11] and in the series with Mus musculus [17] was Active. In addition, the Activity result in the series with Mus musculus [2] and in the series with Mus musculus [14] was “Non-toxic” throughout.
As to `CN1C(=O)CN=C(c2ccccc2)c2cc(Cl)ccc21`, the result in the series on Mus musculus [18], in the series on Mus musculus [19], with Mus musculus [5], with Mus musculus [20], with Mus musculus [21] and with Mus musculus [16] was Active.

The term half-life denotes the time in which the quantity being followed falls by half.
